Where a SMILES comes first, the peptide text is derived from it. [ ]: non-standard residue; d: D form.
How the values were obtained:
Bacteroides fragilis = assay: microbe, parasite or virus in culture; type: cell-based; conditions: 37° C. for 20 hours; tested twice, first/second value where not matched
Procedure: (§1) Further, with respect to not only the above-described strains but also various other strains, the “minimum inhibitory concentration (MIC)” was measured as follows. MIC is the lowest concentration of an agent that may inhibit the growth of a bacterium. MIC is used as a parameter for the efficacy of an antibacterial agent, for the strength of bacterial sensitivity, or the like. The bacteria can grow (proliferate) when the concentration is not higher than MIC, and cannot grow when the concentration is higher than MIC. Its measurement is carried out according to a method defined as a standard method by Japanese Society of Chemotherapy or CLINICAL AND LABORATORY […] (CLSI), but, in this Example, its measurement was carried out by a broth microdilution method in accordance with “M100-S17/M7-A7” (Performance Standards for Antimicrobial Susceptibility Testing; Seventeenth Informational Supplement, Vol. 27 No. 1) published by CLSI on January, 2007. That is, sensitivity test of agents was carried out using a microtiter plate or test tubes.
(§2) The bacteria were cultured in liquid media for 4 to 6 hours, and thereafter absorbances at A600 were measured. Bacterial suspensions were diluted with Mueller-Hinton broth (MHB) according to McFarland #0.5. Each strain was added so as to attain about 10^5 CFU/ml (final concentration). Each peptide was prepared to an optional concentration, and the solutions were serially diluted from the concentration. The polypeptide at each concentration stage was added to a microplate or test tubes, and the bacterial suspension was added thereto. Chloramphenicol, amphotericin B, ciprofloxacin, meropenem (MEPM), ciprofloxacin (CPFX), tobramycin (TOB) and oxacillin (OX) were used as positive controls. The plate was incubated at 37° C. for 20 hours, and the lowest concentration where bacterial growth was inhibited was regarded as the minimum inhibitory concentration.

Clostridium ramosum = assay: microbe, parasite or virus in culture; type: cell-based; conditions: 37° C. for 20 hours; tested twice, first/second value where not matched
Procedure: as §1, §2

Salmonella typhimurium = assay: microbe, parasite or virus in culture; type: cell-based; conditions: 37° C. for 20 hours; tested twice, first/second value where not matched
Procedure: as §1, §2

MSSA (clinical strain 1) = assay: microbe, parasite or virus in culture; type: cell-based, Staphylococcus aureus; conditions: 37° C. for 20 hours; tested twice, first/second value where not matched
Procedure: as §1, §2

rat cut-wound model = assay: Effect to heal cut wounds, wound closing tension; type: in vivo; conditions: 500 ng, 5 and 50 μg dropwise once a day, measured on Day 6
Procedure: Next, using rat cut-wound model, the effect of the polypeptides, SR-07 and SR-08, to heal cut wounds in vivo was evaluated. As described in Tetsuaki Yamaura et al. (Oyo Yakuri (Pharmacometrics) 22, 565-579 (1981)), the rat cut-wound model was produced and the wound closing tension was measured.
That is, a cut wound of 30 to 36 mm was made on the back of Crl:CD (SD) rats (male, 7-week old, obtained from Charles River Laboratories Japan, Inc.) using a safety razor, and sutured at 3 points equally spaced. The day when this surgical treatment was applied was regarded as […] (Day 0). Onto the suture site, 50 μL of each of the peptides which were test substances and were respectively prepared to the concentration of 10, 100 and 1000 μg/mL was added dropwise (the added amounts were 500 ng and 5 and 50 μg, respectively). Additions of 50 μL physiological saline were regarded as negative controls (Saline). Each peptide was added dropwise once a day till the day when the measurement of the wound closing tension was carried out. The sutures were removed on Day 3, and the wound closing tension was measured on Day 6.

[1] = tested on: diabetes full-thickness defect flap model, hairless rats; assay: Effect to heal diabetic skin ulcers in diabetes flap model; type: in vivo, rat; conditions: 0.2 μg/μL
Procedure: For the purpose of producing a diabetes model, 7-week old male hairless rats (HWY/slc) were used, and, on the day before full-thickness defect flaps were created, the blood sugar level was measured and streptozotocin was administered once in tail vein (65 mg/kg). The full-thickness defect flap model was produced by measuring the blood sugar level of the rats on the day after the administration of streptozotocin and deciding only the individuals whose blood sugar level was not less than 300 mg/dL as the diabetes model. The full-thickness defect flaps were created by first creating on the back of each rat a pedicle flap of 2×2 cm (square) whose basal part was on its tail side, and then creating a full-thickness defect site (including dermal layer defect) of 1.4×1.4 cm (square: about 2 cm^2) in the central part of the created pedicle flap. Then, the flap sites were immediately sutured to obtain the full-thickness defect flap model. The model is a model of a diabetic intractable wound or skin ulcer, since the model also lacks dermal layer. […] Thereafter, on every measurement day, the test substance was administered once a day; the change of the area of the wound was calculated by measured values from a digital caliper and digital images; and the area where the wounds had still not healed was measured to calculate the ratio of it relative to the area where the wounds were created (Day 0).

[2] = tested on: burn-ulcer model, hairless rats; assay: Effect to heal burn ulcers; type: in vivo, rat; conditions: 0.2 μg/μL (20 μg/wound), once a day
Procedure: A burn model was produced using 7-week old male hairless rats (HWY/slc), and the healing effect of the polypeptides of the present invention was examined. The burn-ulcer model was produced by contacting a red hot iron (at 100° C., φ12 mm) to the back of each rat for 5 seconds under anesthesia with ether to induce a burn. […] On the day after inducing the burn, the necrotic skin was surgically removed to obtain a burn model. After producing the burn model, the test substance was administered onto the wound site, and a covering was used to cover over that (Day 0). Only a covering was used in the Control. Thereafter, the test substance was administered once a day on every measurement day. And, on Day 6 and Day 8, the change of the area of the wound was measured by calculating measured values from a digital caliper and digital images, and the area where the burns had still not healed was measured to calculate the ratio of it relative to the area where the burns were created (Day 0). The concentration of the test substances were individually 0.2 μg/μL (20 μg/wound).

[3] = tested on: decubitus model, hairless rats; assay: Healing effect on decubituses; type: in vivo, rat; conditions: 0.2 μg/uL (4 μg/wound)
Procedure: In order to confirm the healing effect on a decubitus, one of skin ulcers, a decubitus model was produced using 7-week old male hairless rats (HWY/slc), and the healing effect of the polypeptides of the present invention was examined. A pair of magnets (φ10×5 mm; available from AZBIO KENIS; rare earth magnets; Type: KD-2; Code: 3-118-119; and, Magnetic Flux Density: 350 mT) was contacted to the skin of the back of each rat for 8 hours to induce a decubitus. On the day after inducing the decubitus, the necrotic skin was surgically removed to obtain a decubitus model. After producing the decubitus model, the test substance was administered onto the wound site, and a covering was used to cover over that (Day 0). Only a covering was used in the Control. Thereafter, on every measurement day, the test substance was administered once a day, and the change of the area of the wound was measured by calculating measured values from a digital caliper and digital images. The concentration of the test substances were individually 0.2 μg/uL (4 μg/wound). The area where the burns had still not healed was measured to calculate the ratio of it relative to the area where the burns were created (Day 0).

Question: Which “MIC, Bacteroides fragilis” value (Bacteroides fragilis) does the source give for `CC[C@H](C)[C@H](NC(=O)[C@H](CC(C)C)NC(=O)[C@H](CCCCN)NC(=O)[C@@H](N)CC(C)C)C(=O)N[C@@H](Cc1ccccc1)C(=O)N[C@@H](CC(C)C)C(=O)N[C@@H](Cc1c[nH]cn1)C(=O)N[C@@H](CCCNC(=N)N)C(=O)N[C@@H](CC(C)C)C(=O)N[C@@H](CCCCN)C(=O)N[C@@H](CCCNC(=N)N)C(=O)N[C@@H](CCSC)C(=O)N[C@@H](CCCNC(=N)N)C(=O)N[C@@H](CCCCN)C(=O)N[C@@H](CCCNC(=N)N)C(=O)N[C@@H](CC(C)C)C(=O)N[C@H](CCCCN)C(=O)N[C@@H](CCCNC(=N)N)C(=O)N[C@@H](CCCCN)C(N)=O` [SR-08] (H-LKLIFLHRLKRMRKRL[dK]RK-NH2; N-terminus assumed) here?
Answer: Its value is 64/128.

Question: And the “MIC, Clostridium ramosum” value (Clostridium ramosum)?
Answer: The value was 32/16.

Question: What about the “MIC, Salmonella typhimurium” value (Salmonella typhimurium) of the same molecule?
Answer: Its value is 8/4.

Question: And the “MIC, MSSA (clinical strain 1)” value (MSSA (clinical strain 1))?
Answer: Its value is 16/32.

Question: And the “Wound closing tension (FIGS. 7 and 8)” value (rat cut-wound model)?
Answer: The value was “the wound closing tension tended to be increased”.

Question: And the “Number of days until complete healing (FIGS. 12 and 13)” value [1]?
Answer: Its value is “significantly smaller than the solvent control group”.

Question: And the “Healing effect in burn-ulcer model (unhealed area ratio Day 6 and Day 8, FIGS. 14 and 15)” value [2]?
Answer: Its value is “showed a therapeutic effect also in the burn-ulcer model”.

Question: What about the “Healing effect on decubitus (unhealed area ratio, FIGS. 16 and 17)” value ([3]; once a day) of the same molecule?
Answer: The value was “showed a therapeutic effect also in decubituses”.

Question: And the “Ratio of remaining wound area on Day 12, Mean Value” ([3]; decubitus model, Day 12, Control Group 4.516729)?
Answer: Its value is 0.7902.

From patent publication US9695219B2, “Polypeptide having antibacterial activity and angiogenesis-inducing activity and wound-healing drug containing said polypeptide” (priority 2009, dated 2017)
